# Assay results as given in patent publication US11642413B2, “Compounds for degrading Tau protein aggregates and uses thereof” (Aprinoia Therapeutics Limited, priority 2019, dated 2023).
# Biological target: Tau aggregates in P301L-Tau-FL-GFP HEK293 cells (Homo sapiens (Human), UniProt P10636, P301L)
# Experiment: Tau degradation assay (APNmAb005 ELISA-based Tau aggregation assay)
# Format: cell-based
# Conditions: 1 μM compound
# Method: (A). Cell-based model of Tau inclusion formation: Six month old rTg4510 mouse brain lysates were used as the source of tau seeds, prepared as described in Example 26 above. P301L-Tau-FL-GFP HEK293 cells represent HEK293 cells express full-length human tau T40 (2N4R) carrying the P301L mutation with a GFP tag (P301L-Tau-FL-GFP). 1×10^6 of P301L-Tau-FL-GFP HEK293 cells were cultured on a 6-well plate in culture medium containing DMEM/F-12 (Gibco) supplemented with 10% fetal bovine serum (FBS) (Gibco), 1% Penicillin-Streptomycin (Gibco) and 0.5 mg/ml geneticin (Thermo Fisher Scientific) for 24 hours to reach 70-90% confluency, indicating the cells were ready for transfection. 50 μg of 6-month-old rTg4510 mouse brain lysate was diluted in 400 μL of serum free medium and mixed with 16 μL of lipofectamine 3000 reagent (Thermo Fisher Scientific) diluted in 400 μl of serum free medium. A solution mixture of rTg4510 brain lysate and lipofectamine 3000 was incubated at room temperature for 25 mins. The culture media were removed, and then a solution mixture of rTg4510 lysate and lipofectamine 3000 was added to the cells for transfection. The solution mixture was incubated at room temperature for five hours, followed by medium change to 10% fetal bovine serum (FBS). […]
# Sequence of Tau aggregates in P301L-Tau-FL-GFP HEK293 cells (P10636 other isoform, or with tags, fused parts or gaps P301L): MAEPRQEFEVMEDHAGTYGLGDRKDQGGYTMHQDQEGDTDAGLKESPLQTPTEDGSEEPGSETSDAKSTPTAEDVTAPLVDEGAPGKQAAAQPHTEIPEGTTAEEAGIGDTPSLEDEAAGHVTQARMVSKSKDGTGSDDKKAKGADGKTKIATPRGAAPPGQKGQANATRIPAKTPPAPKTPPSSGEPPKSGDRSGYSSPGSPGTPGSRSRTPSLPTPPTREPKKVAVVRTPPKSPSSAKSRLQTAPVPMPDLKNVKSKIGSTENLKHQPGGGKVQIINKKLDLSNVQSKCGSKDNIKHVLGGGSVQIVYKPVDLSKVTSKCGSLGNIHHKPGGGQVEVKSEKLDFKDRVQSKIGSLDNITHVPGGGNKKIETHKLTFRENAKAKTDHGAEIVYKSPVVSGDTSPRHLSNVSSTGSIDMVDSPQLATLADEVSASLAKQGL
smiles,measurement,value
CN(C)c1ccc(-c2ccc(-c3cn4cccc(OCCOCCOc5ccc6c(c5)CN(C5CCC(=O)NC5=O)C6=O)c4n3)cc2)cn1 (stereo not shown) [Compound 162842],Optical Density (O.D.) 450 value decrease compared to vehicle,20%
